Here are results for nine compounds from PMC6072469, “Small molecule piperazinyl-benzimidazole antagonists of the gonadotropin-releasing hormone (GnRH) receptor” (MedChemComm, 2017).

The target of one data set is T1, hGnRH receptors (Homo sapiens, UniProt P30968).
T1 construct: host or cells: HEK293T (division-arrested, stably expressing)
T1 sequence (P30968 1-328): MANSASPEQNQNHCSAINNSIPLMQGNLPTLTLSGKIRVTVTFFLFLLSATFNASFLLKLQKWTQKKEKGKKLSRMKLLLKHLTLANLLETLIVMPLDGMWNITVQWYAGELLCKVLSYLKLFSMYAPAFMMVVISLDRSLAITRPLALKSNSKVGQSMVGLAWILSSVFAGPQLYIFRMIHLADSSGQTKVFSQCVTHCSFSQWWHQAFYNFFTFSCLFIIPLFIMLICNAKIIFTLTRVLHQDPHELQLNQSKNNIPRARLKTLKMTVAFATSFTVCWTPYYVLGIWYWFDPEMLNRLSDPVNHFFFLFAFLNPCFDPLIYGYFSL
The experiment in a line: Functional cell assay (Ca2+ FLIPR): inhibition of receptor activation by LHRH/GnRH. In kind it is cell-based. The conditions noted are these: for potency to inhibit GnRH receptor (in words): compared with 1 / desired range. The procedure: Compounds insoluble in DMSO at 10 mM were dropped from testing. […] The lead compound WAY207024 (1) was included as a reference in the cell assay. All IC50 values obtained for each test compound in the concentration dependent screening were converted into Ki values using the equation of Cheng and Prusoff.[15] […]
DMEM (Corning Hanks’ Balanced PBS +/- IBMX 1 mM IBMX in Cellgro 10- 013- Salt Solution (TBD by PBS
CV): 90%; (HBSS) titration)
_FBS (Seradigm with 20 mM
Plating cell density for Plating cell density for Forskolin concentration 384-well microplate 384-well microplate for cAMP assay (Gαi-for Ca++ assay for cAMP assay coupled) immediately immediately 5-15 μM without IBMX;
Assay preparations, pretreatment of cells and seeding on 384 well plates.
Thawing Medium was prepared by mixing commercially available stock solutions of DMEM (Corning Cellgro 10-013-CV) and Fetal Bovine Serum, FBS (Seradigm Catalog #1500-500) in a volume ratio of 9:1.
Vials containing 4 x 10^6 frozen cells were transferred from liquid nitrogen to a 37 °C water bath and gently warmed while submerged under water. Immediately after the frozen cells are thawed, the cryovial was removed from the water bath, dried and cleaned with 70% alcohol. Using a 2 mL serological pipette, the cell suspension was transferred to a 15-mL conical centrifuge tube containing 5 mL DMEM pre-warmed to r.t.. The mixture was triturated gently with the same 2 mL serological pipette without causing any air bubbles.
The 15-mL tube was spun at 200x g for 5 minutes at r.t. the supernatant was removed and cells were resuspended in 11 mL of DMEM complete to obtain a cell concentration of 360000 cells/ml. Based on previous titration of cell densitites, 9000 cells were seeded per well and the plate was incubated over night at 37 °C/CO 2.
1. Loading buffer from MD is prepared. Dissolve 1 vial of dye in 10 mL buffer from kit.
2. HBBS/Hepes (1x with Ca/Mg)/20 mM Hepes, pH 7.4 with 0.1 % BSA to be used for dilution of the agonist
3. 60 mL HBBS/20 mM Hepes to be added to test compounds
The day of the assay the seeding medium was carefully decanted from each well by tilting the plate. 25 µl loading buffer containing the Ca 2+ sensing dye was added to each well. Subsequently, 20 µL of HBBS/Hepes were added to each well containing dye. Plates were incubated at 37 °C for 45 min, after which 5 µL antagonist solution (diluted in HBBS/HEPES) were dispensed into each well using a Hamilton 384 well head followed by incubation at r.t. for 15 min. After 15 min agonist was added on the FLIPR platform and the fluorescence signal […]
First sequence: 2 s, 30 sample. (Baseline)
Second sequence: 2 s, 120 sample. (Agonist stimulation)
12.5 µL addiiton, after sample 30.
Addition speed: 20 µl/sec
Compound concentration: 5x, add 12.5 µl of each
One minute baseline stabilisation, 240 s measurement
Compound plate preparation:
Agonist stock solution: Luteinizing hormone releasing hormone, 10 mM in water […]
Dissolve 5 mg in 423 µL of water, store at -80 °C until use.
Prepare a full plate with only agonist at experimental EC50 dose as reported before on FLIPR platform:
Dilute 3,225 µL in 25 mL HBSS/Hepes buffer with 0.1 % BSA
Test compounds (antagonists)
Sample to be analysed (>95% pure by HPLC/microanalysis, fully characterised).
DMSO for cell culture (reference free, anhydrous) stored in desiccator 1: Dimethyl sulfoxide (Hybri-Max™, sterile-filtered, BioReagent, suitable for hybridoma, ≥99.7%, D2650-5X10ML, Sigma-Aldrich) […]
A - Solubility of the sample is assessed with an aliquot of the material and DMSO prior to sample preparation.
B - 10 ±1 mg of each neat, homogeneous sample are weighed into a labelled 1.5 mL flip-top Eppendorff tube.

The nature of data set [1]: Solubility (method not given). In kind it is physicochemical.
Data set [2] in a line: Thermodynamic solubility assay (Analiza, LC-QTOFMS). In kind it is physicochemical. Particulars: for solubility thermodynamic at 24 h: 24 hour incubation, ambient temperature. The procedure:
Thermodynamic solubility assay
Analysis performed at Analiza, Cleveland Ohio.
Apparatus Agilent G6538 QTOF Mass Spectrometer equipped with dual Electrospray Ionization with Mass Hunter data software package Agilent 1290 Infinity II UHPLC system equipped with photodiode array detector, binary pump, vacuum degasser, column heater, thermostat and validated data acquisition software Standard Laboratory equipment (e.g. Pyrex volumetric flasks, graduated cylinders and bottles, sonicator, vortexer, digital timer, calibrated analytical balance, pipettes and tips
Test Compounds: were supplied as dry powder in vials
Consumables: Sodium Chloride (Cat # 21618) was purchased from Affymetrix, Cleveland, OH. HPLC grade water (Cat # EM-WX0004-1), Omnisolv Acetonitrile and (Cat #EM-AX0142-1, DimethylSulfoxide (Cat #D1258) was purchased from Spectrum Chemical, New Brunswick, NJ. DeepWell 96 well plates (Cat #AWLS-219002) were purchased from Arctic White, Bethlehem, PA. Whatman Mini UniPrep syringe-less filter device with […] PTFE filter membrane (Cat #US203NPUORG), Formic Acid (Cat# 0961-100mL) and Round bottom 96 well plates (Cat# 29444-104) were purchased from VWR, Radnor, PA. Benzthiazide (Cat # B7149) and Alprenolol (Cat# A0360000) were purchased from Sigma-Aldrich, St. Louis, MO. Hydrochloric acid,36%, (Cat # 124635000) and Phosphate Buffered Saline, 10X PBS solution, (Cat # BP399-500) were purchased from Fisher Scientific, Fair Lawn, New Jersey.
Preparation of Calibration Standards for LC-MS Analysis:
Separate test compound was weighed into 4mL vials for calibration curves. Samples were received as dry powders in vials containing approximately 5mg of material each. Upon arrival at Analiza the vials were intact.
DimethylSulfoxide (DMSO) was added to each sample such that the final concentration was 10mM and vortexed for 5-10 seconds. After vortexing, all compounds appeared to be fully dissolved. Each test compound was transferred to a polypropylene 96 well plate for robotic preparation of calibration standards.
Each test article DMSO stock solution was serially diluted using a Hamilton STARlet liquid handler with 50-50 LC-MS water 0.1% Formic Acid and LC-MS acetonitrile 0.1% Formic Acid to final concentrations as described below in Table 1 and plated in a polypropylene 96 well plate sealed with foil seal for analysis. A standard calibration curve was prepared for each compound from these dilutions.
Ambient Temperature Test compounds were received as dry powders in vials containing approximately 5mg of material each. Upon arrival at Analiza the vials were intact. Each sample was weighed into a Whatman vial and the appropriate Buffer (450uL) was added to each vial for a dose concentration of approximately 2mg/mL .
Following 24 hour incubation on a rotary shaker (200 RPM) at ambient temperature (22.6-25.0°C), the samples were filtered in a 96 well polypropylene plate. The plate was sealed with a pierceable heat seal and analyzed by […]
Quantitation: 1.) LC-QTOFMS: a. Each sample was weighed into a whatman vial and the appropriate buffer (450uL) was added to each vial for a dose concentration of approximately 2mg/mL incubated for 24 hours and filtered b. The filtrates were assayed undiluted or diluted 100X, 1000X, and/or 10000x with a 50:50 solution of mobile phase and eluted using a fast generic gradient program. c. […] The filtrates were quantified with respect to this calibration curve. […]

Another data set concerns the target human GnRH receptor. Also on record: method as in PMID 19271735. The conditions noted are these: concentration to inhibit GnRH binding to the receptor by 50% ref 11; read-out: IC50 (hGnRH); cited from earlier work.
The target in another data set is rat GnRH receptor. Also on record: method as in PMID 19271735. The conditions noted are these: concentration to inhibit GnRH binding to the receptor by 50% ref 11; read-out: IC50 (rGnRH); cited from earlier work.
Where [3] appears, read: pH 1.2 (simulated gastric fluid).
Where [4] appears, read: pH 7.4 (phosphate buffered saline).
Where [5] appears, read: calculated from mean IC50 using the Cheng–Prusoff equation, read-out: Ki (hGnRH).
Setting [6] is: inhibition of LHRH/GnRH stimulation in cells stably expressing hGnRH receptors, IC50 geometric mean of two experiments, read-out: pIC50 (hGnRH) (converted).

Values after ≈ are worked out from the molar mass of the structure shown. Read-outs that look alike come from different tables or passages of the source.

The solubility is the concentration that dissolves in the medium under given conditions. For the compound `CC(C)(C)c1ccc(-c2nc3c(N4CCN(CCF)CC4)cccc3[nH]2)cc1` [7a], the “potency, fold lower than 1” value at hGnRH receptors (relative to 1) is reported as 21 fold. The compound also displayed a solubility in data set [1] of more than 0.1 µM.

As for `C#CCN1CCN(c2cccc3[nH]c(-c4ccc(C(C)(C)C)cc4)nc23)CC1` [7b], the solubility in data set [1] is more than 0.1 µM.

For orientation: solubility (thermodynamic) means the concentration in solution at equilibrium with solid. With `CC(C)(C)c1ccc(-c2nc3c(N4CCN(Cc5cn(CCF)nn5)CC4)cccc3[nH]2)cc1` [8a], the “potency to inhibit GnRH receptor (in words)” value on hGnRH receptors is “equally potent as 1”. The solubility (thermodynamic) at 24 h in data set [2] (setting [3]) was 2100 µg/mL (≈ 4550 µM); in data set [2] (setting [4]), 3 µg/mL (≈ 6.5 µM). Also, the “solubility, times more soluble than 1” value in data set [2] (relative to 1) was determined as 1.5 times.

One may read the Ki as a dissociation constant, usually derived from enzyme kinetics or from competition with a known ligand. For `CC(=O)NC1C(O)C(O)C(CO)OC1n1cc(CN2CCN(c3cccc4[nH]c(-c5ccc(C(C)(C)C)cc5)nc34)CC2)nn1` (stereo not shown) [8f], the inhibition constant Ki at hGnRH receptors (setting [5]) was more than 1000 nM. The IC50 on hGnRH receptors (setting [6]) was more than 10000 nM.

Take `Cc1cn(C2CC(n3cc(CN4CCN(c5cccc6[nH]c(-c7ccc(C(C)(C)C)cc7)nc56)CC4)nn3)C(CO)O2)c(=O)[nH]c1=O` (stereo not shown) [8g]: at hGnRH receptors (setting [5]), the Ki was 38 nM. For the same compound, the IC50 on hGnRH receptors (setting [6]) is 2000 nM. Further, the results for the thermodynamic solubility at 24 h in data set [2] (setting [3]) and in data set [2] (setting [4]) were 1200 µg/mL (≈ 1880 µM) and less than 1 µg/mL, respectively.

On to `CC(C)(C)c1ccc(-c2nc3c(N4CCN(Cc5cn(-c6nc7ccccc7[nH]6)nn5)CC4)cccc3[nH]2)cc1` [8h], for which, on hGnRH receptors, the “potency to inhibit GnRH receptor (in words)” value was “did not give the desired inhibition”.

As for `CC(C)(C)c1ccc(-c2nc3c(N4CCN(Cc5cn(-c6ccc(F)cc6)nn5)CC4)cccc3[nH]2)cc1` [8i], at hGnRH receptors, the “potency to inhibit GnRH receptor (in words)” value is “did not give the desired inhibition”.

Take `CSc1nc(NC(C)C)nc(-n2cc(CN3CCN(c4cccc5[nH]c(-c6ccc(C(C)(C)C)cc6)nc45)CC3)nn2)n1` [8j]: at hGnRH receptors, the IC50 is more than 10000 nM and the Ki is more than 1000 nM.

Take `CC(C)(C)c1ccc(-c2nc3c(N4CCN(Cc5cccc6nccnc56)CC4)cccc3[nH]2)cc1` [compound 1]: the values for the IC50 on human GnRH receptor and on rat GnRH receptor were 12 nM and 72 nM, respectively.
